PubChem BioAssay AID2060609 (Molecular Pharmacology Branch, DTP, NCI, 2025)

System: 855422-203-R-J1-PDC complex spheroids, viability
Test: Anticancer human tumor 855422-203-R-J1-PDC patient-derived bladder carcinoma cell line growth inhibition [CLK]
Details: for IC50: curve of first compound; for viability, T/C: stronger effect = lower value
Outline: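 Multi-cell-type spheroids combined patient-derived tumor cells with HUVEC endothelial cells and human mesenchymal stem cells. Paired agents were dosed in half-log steps down from about clinical Cmax, or from 10 microM where Cmax was unknown.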

[1] = second compound 0.0316 µM, first compound 0.0316 µM
[2] = second compound 0.0316 µM, first compound 0.1 µM
[3] = second compound 0.0316 µM, first compound 0.316 µM
[4] = second compound 0.0316 µM, first compound 1 µM
[5] = second compound 0.1 µM, first compound 0.0316 µM
[6] = second compound 0.1 µM, first compound 0.1 µM
[7] = second compound 0.1 µM, first compound 0.316 µM
[8] = second compound 0.1 µM, first compound 1 µM
[9] = second compound 0.316 µM, first compound 0.0316 µM
[10] = second compound 0.316 µM, first compound 0.1 µM
[11] = second compound 0.316 µM, first compound 0.316 µM
[12] = second compound 0.316 µM, first compound 1 µM
[13] = second compound 1 µM, first compound 0.0316 µM
[14] = second compound 1 µM, first compound 0.1 µM
[15] = second compound 1 µM, first compound 0.316 µM
[16] = second compound 1 µM, first compound 1 µM
[17] = second compound 3.16 µM, first compound 0.0316 µM
[18] = second compound 3.16 µM, first compound 0.1 µM
[19] = second compound 3.16 µM, first compound 0.316 µM
[20] = second compound 3.16 µM, first compound 1 µM
[21] = second compound 10 µM, first compound 0.0316 µM
[22] = second compound 10 µM, first compound 0.1 µM
[23] = second compound 10 µM, first compound 0.316 µM
[24] = second compound 10 µM, first compound 1 µM
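Note: spheroids exposed to drugs for seven days before readout.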
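Throughout, for viability, T/C: 100% = DMSO vehicle control wells.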

## CC(=O)O[C@H]1C(=O)[C@@]2(C)[C@H]([C@H](OC(=O)c3ccccc3)[C@]3(O)C[C@H](OC(=O)[C@H](O)[C@@H](NC(=O)c4ccccc4)c4ccccc4)C(C)=C1C3(C)C)[C@]1(OC(C)=O)CO[C@@H]1C[C@@H]2O + CN1CCN(c2cc(C(=O)Nc3cc4cc(-c5cnn(C)c5)ccc4cn3)ccn2)CC1
Second compound 0.0316 µM
  IC50: < 31.6 nM
Second compound 0.1 µM
  IC50: < 31.6 nM
Second compound 0.316 µM
  IC50: < 31.6 nM
Second compound 1 µM
  IC50: < 31.6 nM
Second compound 3.16 µM
  IC50: < 31.6 nM
Second compound 10 µM
  IC50: < 31.6 nM
[1]
  viability, T/C: 8.75%
[2]
  viability, T/C: 7.02%
[3]
  viability, T/C: 5.26%
[4]
  viability, T/C: 9.34%
Second compound 0.0316 µM, first compound 3.16 µM
  viability, T/C: 9.46%
Second compound 0.0316 µM, first compound 10 µM
  viability, T/C: 10.8%
[5]
  viability, T/C: 8.5%
[6]
  viability, T/C: 7.8%
[7]
  viability, T/C: 6.23%
[8]
  viability, T/C: 6.41%
Second compound 0.1 µM, first compound 3.16 µM
  viability, T/C: 8.14%
Second compound 0.1 µM, first compound 10 µM
  viability, T/C: 8.37%
[9]
  viability, T/C: 4.94%
[10]
  viability, T/C: 5.41%
[11]
  viability, T/C: 5.22%
[12]
  viability, T/C: 4.69%
Second compound 0.316 µM, first compound 3.16 µM
  viability, T/C: 4.5%
Second compound 0.316 µM, first compound 10 µM
  viability, T/C: 5.61%
[13]
  viability, T/C: 0.21%
[14]
  viability, T/C: 0.19%
[15]
  viability, T/C: 0.18%
[16]
  viability, T/C: 1.39%
Second compound 1 µM, first compound 3.16 µM
  viability, T/C: 1.11%
Second compound 1 µM, first compound 10 µM
  viability, T/C: 0.14%
[17]
  viability, T/C: 0.45%
[18]
  viability, T/C: 0.41%
[19]
  viability, T/C: 0.38%
[20]
  viability, T/C: 0.39%
Second compound 3.16 µM, first compound 3.16 µM
  viability, T/C: 0.32%
Second compound 3.16 µM, first compound 10 µM
  viability, T/C: 0.37%
[21]
  viability, T/C: 1.12%
[22]
  viability, T/C: 0.73%
[23]
  viability, T/C: 0.33%
[24]
  viability, T/C: 1.28%
Second compound 10 µM, first compound 3.16 µM
  viability, T/C: 0.43%
Second compound 10 µM, first compound 10 µM
  viability, T/C: 2.45%

## CCc1c2c(nc3ccc(O)cc13)-c1cc3c(c(=O)n1C2)COC(=O)[C@]3(O)CC + CN1CCN(c2cc(C(=O)Nc3cc4cc(-c5cnn(C)c5)ccc4cn3)ccn2)CC1
Second compound 0.0316 µM
  IC50: 4.23 nM
Second compound 0.1 µM
  IC50: < 3.16 nM
Second compound 0.316 µM
  IC50: < 3.16 nM
Second compound 1 µM
  IC50: < 3.16 nM
Second compound 3.16 µM
  IC50: < 3.16 nM
Second compound 10 µM
  IC50: < 3.16 nM
Second compound 0.0316 µM, first compound 0.00316 µM
  viability, T/C: 61.9%
Second compound 0.0316 µM, first compound 0.01 µM
  viability, T/C: 14.1%
[1]
  viability, T/C: 11.2%
[2]
  viability, T/C: 5.5%
[3]
  viability, T/C: 3.03%
[4]
  viability, T/C: 2.59%
Second compound 0.1 µM, first compound 0.00316 µM
  viability, T/C: 24.7%
Second compound 0.1 µM, first compound 0.01 µM
  viability, T/C: 12.1%
[5]
  viability, T/C: 7.5%
[6]
  viability, T/C: 4.65%
[7]
  viability, T/C: 3.59%
[8]
  viability, T/C: 1.4%
Second compound 0.316 µM, first compound 0.00316 µM
  viability, T/C: 5.85%
Second compound 0.316 µM, first compound 0.01 µM
  viability, T/C: 5.41%
[9]
  viability, T/C: 5.45%
[10]
  viability, T/C: 1.97%
[11]
  viability, T/C: 0.54%
[12]
  viability, T/C: 0.17%
Second compound 1 µM, first compound 0.00316 µM
  viability, T/C: 1.09%
Second compound 1 µM, first compound 0.01 µM
  viability, T/C: 0.16%
[13]
  viability, T/C: 0.3%
[14]
  viability, T/C: 0.23%
[15]
  viability, T/C: 0.15%
[16]
  viability, T/C: 0.33%
Second compound 3.16 µM, first compound 0.00316 µM
  viability, T/C: 0.33%
Second compound 3.16 µM, first compound 0.01 µM
  viability, T/C: 0.52%
[17]
  viability, T/C: 0.44%
[18]
  viability, T/C: 0.3%
[19]
  viability, T/C: 0.46%
[20]
  viability, T/C: 0.23%
Second compound 10 µM, first compound 0.00316 µM
  viability, T/C: 0.38%
Second compound 10 µM, first compound 0.01 µM
  viability, T/C: 0.17%
[21]
  viability, T/C: 0.26%
[22]
  viability, T/C: 2.2%
[23]
  viability, T/C: 2.67%
[24]
  viability, T/C: 0.19%
